# Assay results from the Kinase Knowledgebase extract (Sharma et al. 2016).
# Target: CDK2 (human) (UniProt P24941)
# Assay: Enzyme Assay
row,Structure (SMILES),Ki [nM]
1,Cc1c(N)cncc1-c1ccc2[nH]nc(-c3nc(-c4cccc(F)c4)c[nH]3)c2c1,< 50
2,CCNCc1cncc(-c2ccc3[nH]nc(-c4nc(-c5cccc(OC)c5)c[nH]4)c3c2)c1C,< 50
3,CCCc1nc(-c2n[nH]c3ccc(-c4cncc(CNCC)c4C)cc23)[nH]c1C,< 50
4,CCNCc1cncc(-c2ccc3[nH]nc(-c4ncc(C(=O)NCc5ccccn5)[nH]4)c3c2)c1C,< 50
5,CCNCc1cncc(-c2ccc3[nH]nc(-c4nc(-c5ccc(OC)c(OC)c5)c[nH]4)c3c2)c1C,< 50
6,CCNCc1cncc(-c2ccc3[nH]nc(-c4nc(-c5ccc(C(F)(F)F)cc5)c(C)[nH]4)c3c2)c1C,< 50
7,CCNCc1cncc(-c2ccc3[nH]nc(-c4nc(-c5cccc(C(F)(F)F)c5)c(C)[nH]4)c3c2)c1C,< 50
8,CCNCc1cncc(-c2ccc3[nH]nc(-c4ncc(C(=O)N[C@H]5CCc6ccccc65)[nH]4)c3c2)c1C,< 50
9,CCNCc1cncc(-c2ccc3[nH]nc(-c4ncc(C(=O)N5CCN(Cc6ccccc6)CC5)[nH]4)c3c2)c1C,< 50
10,CCNCc1cncc(-c2ccc3[nH]nc(-c4nc(-c5ccccc5)c(C)[nH]4)c3c2)c1C,< 50
11,CCNCc1cncc(-c2ccc3[nH]nc(-c4ncc(C(=O)NCC)[nH]4)c3c2)c1C,< 50
12,CCNCc1cncc(-c2ccc3[nH]nc(-c4nc(-c5cccc(F)c5)c[nH]4)c3c2)c1C,< 50
13,CCNCc1cncc(-c2ccc3[nH]nc(-c4ncc(C(=O)NC5CCCC5)[nH]4)c3c2)c1C,< 50
14,CCNCc1cncc(-c2ccc3[nH]nc(-c4ncc(C(=O)N5CCCCC5)[nH]4)c3c2)c1C,< 50
15,CCNCc1cncc(-c2ccc3[nH]nc(-c4ncc(C(=O)N5CCCC5)[nH]4)c3c2)c1C,< 50
16,CCNCc1cncc(-c2ccc3[nH]nc(-c4ncc(C(=O)N(CC)CC)[nH]4)c3c2)c1C,< 50
17,CCNCc1cncc(-c2ccc3[nH]nc(-c4ncc(C(=O)N5CCOCC5)[nH]4)c3c2)c1C,< 50
18,CCNCc1cncc(-c2ccc3[nH]nc(-c4ncc(C(=O)N[C@@H]5CCc6ccccc65)[nH]4)c3c2)c1C,< 50
19,CNCc1cncc(-c2ccc3[nH]nc(-c4ncc[nH]4)c3c2)c1C,< 50
20,CCNCc1cncc(-c2ccc3[nH]nc(-c4nc(-c5ccccc5)c[nH]4)c3c2)c1C,< 50
21,CCNCc1cncc(-c2ccc3[nH]nc(-c4nc5c([nH]4)CCCC5)c3c2)c1CC,< 50

row,Structure (SMILES),Ki [nM]
1,CCCCCC.CCNCc1cncc(-c2ccc3[nH]nc(-c4nc(CC)c(C)[nH]4)c3c2)c1C,< 50
2,CCNCc1cncc(-c2ccc3[nH]nc(-c4ncc(C(=O)NCCOC)[nH]4)c3c2)c1C,< 50
3,CCNCc1cncc(-c2ccc3[nH]nc(-c4ncc(C(=O)N5CCCCCC5)[nH]4)c3c2)c1C,< 50
4,CCNCc1cncc(-c2ccc3[nH]nc(-c4ncc(C(=O)N5C[C@@H](C)O[C@@H](C)C5)[nH]4)c3c2)c1C,< 50
5,CCNCc1cncc(-c2ccc3[nH]nc(-c4nc(-c5ccc(OC)cc5)c[nH]4)c3c2)c1C,< 50
6,CCc1nc(-c2n[nH]c3ccc(-c4cncc(N)c4C)cc23)[nH]c1CC,< 50
7,CCNCc1cncc(-c2ccc3[nH]nc(-c4ncc(C(=O)N5CC=C(c6ccccc6)CC5)[nH]4)c3c2)c1C,< 50
8,CCNCc1cncc(-c2ccc3[nH]nc(-c4nc(-c5cc(Cl)cc(Cl)c5)c(C)[nH]4)c3c2)c1C,< 50
9,CC(C)(C)O.Cc1c(N)cncc1-c1ccc2[nH]nc(-c3nc(-c4ccc(F)cc4)c[nH]3)c2c1,< 50
10,CCNCc1cncc(-c2ccc3[nH]nc(-c4ncc(C(=O)NCCN(C)C)[nH]4)c3c2)c1C,< 50
11,CCNCc1cncc(-c2ccc3[nH]nc(-c4ncc(C(=O)N[C@H]5CCCCNC5=O)[nH]4)c3c2)c1C,< 50
12,CCNCc1cncc(-c2ccc3[nH]nc(-c4nc(C)c[nH]4)c3c2)c1C,< 50
13,CCNCc1cncc(-c2ccc3[nH]nc(-c4ncc(C(=O)N5CCN(CCOC)CC5)[nH]4)c3c2)c1C,< 50
14,CCNCc1cncc(-c2ccc3[nH]nc(-c4nc(-c5ccc(Cl)cc5)c(C)[nH]4)c3c2)c1C,< 50
15,CCNCc1cncc(-c2ccc3[nH]nc(-c4nc(CC)c(CC)[nH]4)c3c2)c1C,< 50
16,CCNCc1cncc(-c2ccc3[nH]nc(-c4ncc(C(=O)N5CCC6CCCCC6C5)[nH]4)c3c2)c1C (stereo not drawn),< 50
17,CCNCc1cncc(-c2ccc3[nH]nc(-c4cnc[nH]4)c3c2)c1C,< 50
18,c1ncc(-c2n[nH]c3ccc(-c4cncc5[nH]ccc45)cc23)[nH]1,< 50
19,C1CCCCC1.COCc1cncc(-c2ccc3[nH]nc(-c4nc5c([nH]4)CCCC5)c3c2)c1C,< 50
20,C[S+](C)[O-].Cc1c(N)cncc1-c1ccc2[nH]nc(-c3nc(-c4ccccc4)c[nH]3)c2c1,< 50
21,CCNCc1cncc(-c2ccc3[nH]nc(-c4ncc(C(=O)N5CCN(c6ccc(F)cc6F)CC5)[nH]4)c3c2)c1C,< 50

# Next, values leading:
row,Ki [nM],Structure (SMILES)
1,< 50,CCNCc1cncc(-c2ccc3[nH]nc(-c4ncc(C(=O)NC5C6CC7CC(C6)CC5C7)[nH]4)c3c2)c1C (stereo not drawn)
2,< 50,CNCc1cncc(-c2ccc3[nH]nc(-c4nc(C)c[nH]4)c3c2)c1C
3,< 50,CCNCc1cncc(-c2ccc3[nH]nc(-c4nc5c([nH]4)CCCC5)c3c2)c1C
4,< 50,Cc1c(CNC(C)C)cncc1-c1ccc2[nH]nc(-c3ncc[nH]3)c2c1
5,< 50,CCNCc1cncc(-c2ccc3[nH]nc(-c4ncc[nH]4)c3c2)c1CC
6,< 50,CCNCc1cncc(-c2ccc3[nH]nc(-c4ncc(C(=O)NCCC5=CCCCC5)[nH]4)c3c2)c1C
7,< 50,CCNCc1cncc(-c2ccc3[nH]nc(-c4nc(C(=O)NC5CCCCC5)c[nH]4)c3c2)c1C
8,< 50,CCCCCC.CCNCc1cncc(-c2ccc3[nH]nc(-c4nc(C)c(C)[nH]4)c3c2)c1C
9,< 50,CCNCc1cncc(-c2ccc3[nH]nc(-c4ncc(C(=O)N(C)C5CCN(Cc6ccccc6)C5)[nH]4)c3c2)c1C (stereo not drawn)
10,< 50,CCNCc1cncc(-c2ccc3[nH]nc(-c4ncc(C(=O)N5Cc6ccccc6C5)[nH]4)c3c2)c1C
11,< 50,CCNCc1cncc(-c2ccc3[nH]nc(-c4nc(-c5ccccc5)c(C(=O)NCc5ccccc5)[nH]4)c3c2)c1C
12,< 50,CCNCc1cncc(-c2ccc3[nH]nc(-c4nc(C(=O)NCc5cccnc5)c[nH]4)c3c2)c1C
13,< 50,CCNCc1cncc(-c2ccc3[nH]nc(-c4ncc[nH]4)c3c2)c1C
14,< 50,CCNCc1cncc(-c2ccc3[nH]nc(-c4nc(CC(C)C)c(C)[nH]4)c3c2)c1C
15,< 50,CCNCc1cncc(-c2ccc3[nH]nc(-c4ncc(C(=O)N5CCCC(Cc6ncccn6)CC5)[nH]4)c3c2)c1C (stereo not drawn)
16,< 50,c1c[nH]c(-c2n[nH]c3ccc(-c4cncc5[nH]ccc45)cc23)n1
17,< 50,Cc1c(N)cncc1-c1ccc2[nH]nc(-c3nc4c([nH]3)CCCC4)c2c1
18,< 50,CCNCc1cncc(-c2ccc3[nH]nc(-c4ncc(C(=O)N(CCN(C)C)Cc5ccccc5)[nH]4)c3c2)c1C
19,< 50,CCNCc1cncc(-c2ccc3[nH]nc(-c4ncc(C(=O)N5CCN(C)CC5)[nH]4)c3c2)c1C
20,< 50,CCNCc1cncc(-c2ccc3[nH]nc(-c4ncc(C(=O)NC(C)C)[nH]4)c3c2)c1C
21,< 50,CCNCc1cncc(-c2ccc3[nH]nc(-c4ncc(C(=O)N5CCN(c6ccccc6)CC5)[nH]4)c3c2)c1C
22,< 50,CCNCc1cncc(-c2ccc3[nH]nc(-c4ncc(C(=O)N5CCC(Oc6ccccc6)CC5)[nH]4)c3c2)c1C
23,< 50,CCNCc1cncc(-c2ccc3[nH]nc(-c4nc(-c5ccc(F)cc5)c[nH]4)c3c2)c1C
24,< 50,CCNCc1cncc(-c2ccc3[nH]nc(-c4ncc(C(=O)N5CCC(Cc6ncccn6)CC5)[nH]4)c3c2)c1C
25,< 50,CCNCc1cncc(-c2ccc3[nH]nc(-c4ncc(C(=O)N5CCN(Cc6ccccn6)CC5)[nH]4)c3c2)c1C
26,< 50,CCNCc1cncc(-c2ccc3[nH]nc(-c4cc(C)n[nH]4)c3c2)c1C
